Measurements as given in patent US20220380342A1, “BIPHENYL DERIVATIVES FOR BLOCKING PD-1/PD-L1 INTERACTION, PREPARATION METHOD THEREFOR AND USE THEREOF” (Abbisko Therapeutics Co., Ltd., priority 2019, published 2022).

Experiments:
[1] = molecular target: T1, interaction between PD-1 and PD-L1 (Homo sapiens, UniProt Q9NZQ7); test: PD1-PDL1 HTRF binding activity test; conditions: Cisbio PD-1/PD-L1 binding assay kit; percent inhibition vs DMSO
T1 construct: purchased Cisbio 64ICP01PEG or 64ICP01PEH
T1 sequence (Q9NZQ7 19-238 limits assumed): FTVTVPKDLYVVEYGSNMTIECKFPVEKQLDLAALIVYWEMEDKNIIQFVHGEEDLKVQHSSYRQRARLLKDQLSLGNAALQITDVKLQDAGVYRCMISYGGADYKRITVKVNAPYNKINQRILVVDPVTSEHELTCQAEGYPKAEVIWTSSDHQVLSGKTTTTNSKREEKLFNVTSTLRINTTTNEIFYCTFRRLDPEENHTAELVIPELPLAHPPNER
Description: The effect of compounds of the examples of the present invention on the interaction between PD-1 and PD-L1 was determined by the PD-1/PD-L1 binding assay kit from Cisbio (#64ICP01PEG or 64ICP01PEH). The detailed experimental process was as follows:
1) Pre-diluted compound solution, 4 μL of Tag1-PD-L1 and 4 μL of Tag2-PD1 were added to each well of a 384-well plate;
2) After the mixture was incubated at room temperature for 15 min, 5 μL of anti-Tag1-Eu3+ antibody and 5 μL of anti-Tag2-XL665 antibody were then added;
3) After incubated for 2 hrs at room temperature or overnight at 4° C., plates were read on Envision of Perkin Elmer; and readings at 665 nm and 620 nm were recorded, and the ratio of the two readings was taken as a reading for each well;
4) The reading of each well after compound treatment was compared with the reading of DMSO treated wells to obtain the percent inhibition of the compound; and
5) IC50 values of compounds of the examples of the present invention were determined by non-linear regression analysis of percent inhibition at different compound concentrations.

[2] = molecular target: T2, interaction between PD-1 and PD-L1 expressed on cell surfaces (Jurkat/NF-κB-luc/PD1 cells cocultured with Raji-PD-L1 cells) (Homo sapiens, UniProt Q9NZQ7); test: Jurkat reporter gene cellular assay; type: cell-based; conditions: OKT3 1 μg/mL stimulation, 6 hrs, activation fold vs DMSO
T2 construct: expressed in transfected cells; host or cells: Raji cells (PD-L1); Jurkat cells (PD-1, NF-κB-luc reporter)
T2 sequence (Q9NZQ7 19-290): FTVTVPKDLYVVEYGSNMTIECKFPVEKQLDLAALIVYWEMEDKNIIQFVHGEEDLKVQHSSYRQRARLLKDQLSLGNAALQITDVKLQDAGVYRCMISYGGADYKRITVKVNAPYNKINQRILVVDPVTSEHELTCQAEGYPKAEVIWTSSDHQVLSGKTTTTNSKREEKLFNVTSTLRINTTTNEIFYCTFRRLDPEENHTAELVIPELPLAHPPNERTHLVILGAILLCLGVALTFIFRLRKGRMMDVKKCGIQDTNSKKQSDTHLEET
Description: The effect of compounds of the examples of the present invention on the interaction between PD-1 and PD-L1 expressed on cell surfaces, and the related influence on T cell functions, were determined by a Jurkat reporter gene cellular assay.
Briefly, the reporter gene plasmid of NF-κB-luc and the plasmid of human PD-1 were transfected into Jurkat cells to establish a stably transfected cell line capable of stably expressing both PD-1 and NF-κB-Luc reporter genes; the expression level of PD-1 on the cell surface was confirmed by flow cytometry; and the expression of the reporter gene was confirmed via the response of the reporter gene stimulated by OKT-3 and Raji cells.
In addition, the plasmid of human PD-L1 was transfected into Raji cells to obtain a cell line capable of stably expressing PD-L1. Jurkat/NF-κB-luc/PD1 cells and Raji-PD-L1 cells were then cocultured and stimulated with OKT-3. On this basis, the compounds were added, and the enhancement of the signal pathway of T cell activation by the inhibitory effect of the compounds on the interaction between PD-1 and PD-L1 was evaluated by readings of reporter gene responses. The specific experimental process was as follows:
1) 30 μL of compound or antibody solution was added to each well of a white 96-well plate (Corning, 3610) at different diluted concentrations, and 10 μL of OKT3 (Biolegend, 317326) was then added (the final concentration of OKT3: 1 μg/mL);
2) 20 μL of Raji-PD-L1 cell suspension was added to each well with 5*10^4 cells for each well, and was incubated in an incubator for 20 min;
3) 20 μL of Jurkat/NF-Kb-luc/PD-1 cell suspension was added to each well with 5*10^4 cells for each well, and was well mixed, and 6 hrs later, Bright-glo (Promega, E2620) was applied and plates were read on Envision;
4) The reading of each well treated with the compound was compared with the reading of each well treated with DMSO to obtain the activation fold of the compound; and
5) EC50 values of compounds of the examples of the present invention were determined by non-linear regression analysis of activation folds at different compound concentrations.

SMILES	IC50 [1]	EC50 [2]
Cc1c(NC(=O)c2cc(C3CC3)c(CNC3CCOCC3)cn2)cccc1-c1cccc(NC(=O)c2cc(C3CC3)c(CN3CCCC[C@H]3C(=O)O)cn2)c1C [Example 24, (S)-1-((4-cyclopropyl-6-((3′-(4-cyclopropyl-5-(((tetrahydro-2H-pyran-4-yl)amino)methyl)picolinamido)-2,2′-dimethyl-[1,1′-biphenyl]-3-yl)carbamoyl)pyridin-3-yl)methyl)piperidine-2-carboxylic acid]	0.91 nM	52 nM
Cc1c(NC(=O)c2cc(C3CC3)c(CN[C@H]3CCOC3)cn2)cccc1-c1cccc(NC(=O)c2cc(C3CC3)c(CN3CCCC[C@H]3C(=O)O)cn2)c1C [Example 25, (S)-1-((4-cyclopropyl-6-((3′-(4-cyclopropyl-5-((((S)-tetrahydrofuran-3-yl)amino)methyl)picolinamido)-2,2′-dimethyl-[1,1′-biphenyl]-3-yl)carbamoyl)pyridin-3-yl)methyl)piperidine-2-carboxylic acid]	0.91 nM	8.7 nM
Cc1c(NC(=O)c2cc(C3CC3)c(CN3CCC[C@H]3CO)cn2)cccc1-c1cccc(NC(=O)c2cc(C3CC3)c(CN3CCCC[C@H]3C(=O)O)cn2)c1C [Example 27, (S)-1-((4-cyclopropyl-6-((3′-(4-cyclopropyl-5-(((S)-2-(hydroxymethyl)pyrolidin-1-yl)methyl)picolinamido)-2, 2′-dimethyl-[1,1′-biphenyl]-3-yl)carbamoyl)pyridin-3-yl)methyl)piperidine-2-carboxylic acid]	2.62 nM	27.3 nM
Cc1c(NC(=O)c2cc(C3CC3)c(CN3CCC[C@@H]3CO)cn2)cccc1-c1cccc(NC(=O)c2cc(C3CC3)c(CN3CCCC[C@H]3C(=O)O)cn2)c1C [Example 28, (S)-1-((4-cyclopropyl-6-((3′-(4-cyclopropyl-5-(((R)-2-(hydroxymethyl)pyrolidin-1-yl)methyl)picolinamido)-2, 2′-dimethyl-[1,1′-biphenyl]-3-yl)carbamoyl)pyridin-3-yl)methyl)piperidine-2-carboxylic acid]	4.17 nM	35.3 nM
Cc1c(NC(=O)c2cc(C3CC3)c(CNCCO)cn2)cccc1-c1cccc(NC(=O)c2cc(C3CC3)c(CN[C@H](CO)C(=O)O)cn2)c1C [Example 35, ((4-cyclopropyl-6-((3′-(4-cyclopropyl-5-(((2-hydroxyethyl)amino)methyl)picolinamido)-2,2′-dimethyl-[1,1′-biphenyl]-3-yl)carbamoyl)pyridin-3-yl)methyl)-D-serine]	1.95 nM	28.6 nM
Cc1c(NC(=O)c2cc(C3CC3)c(CN[C@H](CO)C(=O)O)cn2)cccc1-c1cccc(NC(=O)c2cc(C3CC3)c(CN3CC(C)(O)C3)cn2)c1C [Example 36, ((4-cyclopropyl-6-((3′-(4-cyclopropyl-5-((3-hydroxy-3-methylazetidin-1-yl)methyl)picolinamido)-2,2′-dimethyl-[1,1′-biphenyl]-3-yl)carbamoyl)pyridin-3-yl)methyl)-D-serine]	0.72 nM	52 nM
Cc1c(NC(=O)c2cc(C3CC3)c(CNCCO)cn2)cccc1-c1cccc(NC(=O)c2cc(C3CC3)c(CN[C@@H](CO)C(=O)O)cn2)c1C [Example 37, ((4-cyclopropyl-6-((3′-(4-cyclopropyl-5-(((2-hydroxyethyl)amino)methyl)picolinamido)-2,2′-dimethyl-[1,1′-biphenyl]-3-yl)carbamoyl)pyridin-3-yl)methyl)-L-serine]	0.95 nM	25.2 nM
Cc1c(NC(=O)c2cc(C3CC3)c(CN[C@H](C)CO)cn2)cccc1-c1cccc(NC(=O)c2cc(C3CC3)c(CN[C@H](CO)C(=O)O)cn2)c1C [Example 38, ((4-cyclopropyl-6-((3′-(4-cyclopropyl-5-((((R)-1-hydroxypropan-2-yl)amino)methyl)picolinamido)-2,2-dimethyl-[1,1′-biphenyl]-3-yl)carbamoyl)pyridin-3-yl)methyl)-D-serine]	0.67 nM	37.3 nM
CCOC(=O)[C@@H](CO)NCc1cnc(C(=O)Nc2cccc(-c3cccc(NC(=O)c4cc(C5CC5)c(CN[C@H](C)CO)cn4)c3C)c2C)cc1C1CC1 [Example 38-1, Ethyl ((4-cyclopropyl-6-((3′-(4-cyclopropyl-5-((((R)-1-hydroxypropan-2-yl)amino)methyl)picolinamido)-2,2′-dimethyl-[1,1′-biphenyl]-3-yl)carbamoyl)pyridin-3-yl)methyl)-D-serinate]	4.77 nM	219 nM

Continued, values first:

IC50 [1]	EC50 [2]	SMILES
1.61 nM	115 nM	CCOC(=O)[C@@H](CO)NCc1cnc(C(=O)Nc2cccc(-c3cccc(NC(=O)c4cc(C5CC5)c(CN5CCCC[C@H]5C(=O)O)cn4)c3C)c2C)cc1C1CC1 [Example 29, (S)-1-((4-cyclopropyl-6-((3′-(4-cyclopropyl-5-((((R)-1-ethoxy-3-hydroxy-1-oxopropan-2-yl)amino)methyl)picolinamido)-2,2′-dimethyl-[1,1′-biphenyl]-3-yl)carbamoyl)pyridin-3-yl)methyl)piperidine-2-carboxylic acid]
0.97 nM	18.1 nM	Cc1c(NC(=O)c2cc(C3CC3)c(CN[C@H](CO)C(=O)O)cn2)cccc1-c1cccc(NC(=O)c2cc(C3CC3)c(CN3CCCC[C@H]3C(=O)O)cn2)c1C [Example 30, (S)-1-((6-((3′-(5-((((R)-1-carboxy-2-hydroxyethyl)amino)methyl)-4-cyclopropylpicolinamido)-2,2′-dimethyl-[1,1′-biphenyl]-3-yl)carbamoyl)-4-cyclopropylpyridin-3-yl)methyl)piperidine-2-carboxylic acid]
2.57 nM	42.6 nM	CCOC(=O)[C@H](CO)NCc1cnc(C(=O)Nc2cccc(-c3cccc(NC(=O)c4cc(C5CC5)c(CN5CCCC[C@H]5C(=O)O)cn4)c3C)c2C)cc1C1CC1 [Example 31, (S)-1-((4-cyclopropyl-6-((3′-(4-cyclopropyl-5-((((S)-1-ethoxy-3-hydroxy-1-oxopropan-2-yl)amino)methyl)picolinamido)-2,2′-dimethyl-[1,1′-biphenyl]-3-yl)carbamoyl)pyridin-3-yl)methyl) piperidine-2-carboxylic acid]
1.85 nM	44.8 nM	Cc1c(NC(=O)c2cc(C3CC3)c(CN[C@@H](CO)C(=O)O)cn2)cccc1-c1cccc(NC(=O)c2cc(C3CC3)c(CN3CCCC[C@H]3C(=O)O)cn2)c1C [Example 32, (S)-1-((6-((3′-(5-((((S)-1-carboxy-2-hydroxyethyl)amino)methyl)-4-cyclopropylpicolinamido)-2,2′-dimethyl-[1,1′-biphenyl]-3-yl)carbamoyl)-4-cyclopropylpyridin-3-yl)methyl) piperidine-2-carboxylic acid]
3.03 nM	231 nM	CCOC(=O)[C@@H](CO)NCc1cnc(C(=O)Nc2cccc(-c3cccc(NC(=O)c4cc(C5CC5)c(CNCCO)cn4)c3C)c2C)cc1C1CC1 [Example 35-1, ethyl ((4-cyclopropyl-6-((3′-(4-cyclopropyl-5-(((2-hydroxyethyl)amino)methyl)picolinamido)-2,2′-dimethyl-[1,1′-biphenyl]-3-yl)carbamoyl)pyridin-3-yl)methyl)-D-serinate]
5.58 nM	265 nM	CCOC(=O)[C@H](CO)NCc1cnc(C(=O)Nc2cccc(-c3cccc(NC(=O)c4cc(C5CC5)c(CNCCO)cn4)c3C)c2C)cc1C1CC1 [Example 37-1, Ethyl ((4-cyclopropyl-6-((3′-(4-cyclopropyl-5-(((2-hydroxyethyl)amino)methyl)picolinamido)-2,2′-dimethyl-[1,1′-biphenyl]-3-yl)carbamoyl)pyridin-3-yl)methyl)-L-serinate]
